Source: patent publication US9815847B2 (Icahn School of Medicine at Mount Sinai, priority 2013, dated 2017)

Assays:
Assay type in all cases: cell-based
DU145 [1] = assay: Cytotoxicity on DU145 cancer cell line; settings: Homo sapiens, DU-145; DU145 prostate cancer; 96 h; 0.01-100 μM
Description: The effect of the compounds described herein on tumor cells was determined by the assay described by Latham et al., Oncogene 12:827-837 (1996). Tumor cells K562 (chronic myelogenous leukemia; leukemia cell line +ve for Bcr-Abl) or DU145 (prostate cancer) were plated in 12-well dishes at a cell density of 2.5×10^4 cells per well. The plated cells were treated 24 h. later with a DMSO solution of a compound as described herein at multiple concentrations ranging from 0.01 μM to 100 μM. The plates were examined 96 h. later under an inverted microscope, Olympus CK-2 using a 10× objective, and compound activity was noted by physical observation. When necessary, the total number of viable cells was determined by trypsinizing the wells and counting the number of viable cells, as determined by trypan blue exclusion, using a hemacytometer.

32D-T315I = assay: Cytotoxicity assay, dose response end point; settings: chronic myelogenous leukemia, 96 h
Description: (§1) The following tumor cell lines were tested using a dose response end point assay system with compound (8h). The cells were grown in either DMEM or RPMI supplemented with 10% fetal bovine serum and 1 unit/mL Penicillin-Streptomycin solution. The tumor cells were plated into 6-well dishes at a cell density of 1.0×10^5 cells/mL/well and the test compound was added 24 h. later at various concentrations. Cell counts were determined from duplicate wells after 96 h. of treatment. The total number of viable cells was determined by trypan blue exclusion.

A431 = assay: Cytotoxicity assay, dose response end point; settings: Homo sapiens, A-431; A431, epidermoid carcinoma; 96 h
Description: as §1

ASPC-1 = assay: Cytotoxicity assay, dose response end point; settings: Homo sapiens, ASPC1; ASPC-1, pancreatic adenocarcinoma; 96 h
Description: as §1

BT474 = assay: Cytotoxicity assay, dose response end point; settings: Homo sapiens, BT-474; BT474, Breast carcinoma; 96 h
Description: as §1

BXPC-3 = assay: Cytotoxicity assay, dose response end point; settings: Homo sapiens; BXPC-3, pancreatic adenocarcinoma; 96 h
Description: as §1

CAPAN-1 = assay: Cytotoxicity assay, dose response end point; settings: Homo sapiens; CAPAN-1, pancreatic ductal adenocarcinoma; 96 h
Description: as §1

CEM/C2 = assay: Cytotoxicity assay, dose response end point; settings: Homo sapiens; CEM/C2, T-cell leukemia; 96 h
Description: as §1

CEM = assay: Cytotoxicity assay, dose response end point; settings: Homo sapiens, CCRF-CEM, T-cell leukemia, 96 h
Description: as §1

DAUDI = assay: Cytotoxicity assay, dose response end point; settings: Homo sapiens, Burkitt's lymphoma, 96 h
Description: as §1

DU145 [2] = assay: Cytotoxicity assay, dose response end point; settings: Homo sapiens, DU-145; DU145, prostate carcinoma; 96 h
Description: as §1

HCT-116 = assay: Cytotoxicity assay, dose response end point; settings: Homo sapiens; HCT-116, colon cancer; 96 h
Description: as §1

HCT-15 = assay: Cytotoxicity assay, dose response end point; settings: Homo sapiens; HCT-15, Dukes' type C colorectal adenocarcinoma; 96 h
Description: as §1

HELA = assay: Cytotoxicity assay, dose response end point; settings: Homo sapiens, Cervical adenocarinoma, 96 h
Description: as §1

HEL = assay: Cytotoxicity assay, dose response end point; settings: human erythroleukemia, 96 h
Description: as §1

HFL-1 = assay: Cytotoxicity assay, dose response end point; settings: Homo sapiens, HFL1; HFL-1, fetal lung fibroblast; 96 h
Description: as §1

HL-60/MX2 = assay: Cytotoxicity assay, dose response end point; settings: Homo sapiens, HL60/MX2; HL-60/MX2, promyelocytic leukaemia; 96 h
Description: as §1

HL-60 = assay: Cytotoxicity assay, dose response end point; settings: Homo sapiens; HL-60, promyelocytic leukaemia; 96 h
Description: as §1

HPAF-II = assay: Cytotoxicity assay, dose response end point; settings: Homo sapiens, pancreatic adenocarcinoma, 96 h
Description: as §1

HT-29 = assay: Cytotoxicity assay, dose response end point; settings: Homo sapiens; HT-29, colonic adenocarcinoma; 96 h
Description: as §1

K562 = assay: Cytotoxicity assay, dose response end point; settings: Homo sapiens; K562, chronic myelogenous leukemia; 96 h
Description: as §1

KG-1a = assay: Cytotoxicity assay, dose response end point; settings: Homo sapiens, acute myelogenous leukemia, 96 h
Description: as §1

MES-SA/DX5 = assay: Cytotoxicity assay, dose response end point; settings: Homo sapiens; MES-SA/DX5, Uterine sarcoma; 96 h
Description: as §1

MES-SA = assay: Cytotoxicity assay, dose response end point; settings: Homo sapiens, uterine sarcoma, 96 h
Description: as §1

MIA-PaCa-2 = assay: Cytotoxicity assay, dose response end point; settings: Homo sapiens; MIA-PaCa-2, pancreatic carcinoma; 96 h
Description: as §1

MOLT-4 = assay: Cytotoxicity assay, dose response end point; settings: Homo sapiens; MOLT-4, acute lymphoblastic leukemia; 96 h
Description: as §1

Nalmalwa = assay: Cytotoxicity assay, dose response end point; settings: Burkitt's lymphoma, 96 h
Description: as §1

PANC 03.27 = assay: Cytotoxicity assay, dose response end point; settings: Homo sapiens, PANC-03-27; PANC 03.27, Pancreatic adenocarcinoma; 96 h
Description: as §1

PANC 10.05 = assay: Cytotoxicity assay, dose response end point; settings: Homo sapiens, Panc1005; PANC 10.05, pancreatic adenocarcinoma; 96 h
Description: as §1

RAJI = assay: Cytotoxicity assay, dose response end point; settings: Homo sapiens, Burkitt's lymphoma, 96 h
Description: as §1

SU.86.86 = assay: Cytotoxicity assay, dose response end point; settings: Homo sapiens; SU.86.86, pancreatic ductal carcinoma; 96 h
Description: as §1

U266 = assay: Cytotoxicity assay, dose response end point; settings: Homo sapiens, U-266; U266, multiple myeloma; 96 h
Description: as §1

U937 = assay: Cytotoxicity assay, dose response end point; settings: Homo sapiens, U-937; U937, histiocytic lymphoma; 96 h
Description: as §1

Z138C = assay: Cytotoxicity assay, dose response end point; settings: mantle cell lymphoma, 96 h
Description: as §1

SMILES: CN1CCN(c2ccc(Nc3ncc(/C=C/C#N)c(NC4CCCC4)n3)cc2)CC1 [Compound 8h, 3-{4-Cyclopentylamino-2-[4-(4-methylpiperazin-1-yl)phenylamino]pyrimidin-5-yl}acrylonitrile]
- IC50 (DU145 [1]): < 1000 nM
- GI50 (32D-T315I): 500 nM
- GI50 (A431): 100 nM
- GI50 (ASPC-1): > 5000 nM
- GI50 (BT474): 2500 nM
- GI50 (BXPC-3): 100 nM
- GI50 (CAPAN-1): 100 nM
- GI50 (CEM/C2): 1500 nM
- GI50 (CEM): 1500 nM
- GI50 (DAUDI): 100 nM
- GI50 (DU145 [2]): < 500 nM
- GI50 (HCT-116): 500 nM
- GI50 (HCT-15): 30 nM
- GI50 (HELA): > 5000 nM
- GI50 (HEL): < 250 nM
- GI50 (HFL-1): 100 nM
- GI50 (HL-60/MX2): 250 nM
- GI50 (HL-60): 500 nM
- GI50 (HPAF-II): 5000 nM
- GI50 (HT-29): 50 nM
- GI50 (K562): 40 nM
- GI50 (KG-1a): < 20 nM
- GI50 (MES-SA/DX5): < 20 nM
- GI50 (MES-SA): 20 nM
- GI50 (MIA-PaCa-2): > 5000 nM
- GI50 (MOLT-4): 100 nM
- GI50 (Nalmalwa): 200 nM
- GI50 (PANC 03.27): 3000 nM
- GI50 (PANC 10.05): > 5000 nM
- GI50 (RAJI): < 20 nM
- GI50 (SU.86.86): 5000 nM
- GI50 (U266): 1000 nM
- GI50 (U937): 100 nM
- GI50 (Z138C): 3000 nM
